In patent US20220193060A1, “Inhibition of IL-1 Induced Inflammation” (THIOLAB, LLC., priority 2019, published 2022):
“Also recorded” adds a separate entry of the source.

Legend:
[1] = test system: IL-1β; test: IL-1β ELISA, PMA-treated THP-1 cells stimulated with IFNγ and LPS; format: cell-based, human; conditions: for Ave IL-Ib 1/10 Avg / Ave IL-Ib 1/10 Rep 1 / Ave IL-Ib 1/10 Rep 2 / Ave IL-Ib 2/28 Rep 1 / Ave IL-Ib 2/28 Rep 2 / Ave IL-Ib 2/28 Rep 3 / IL-1β Relative %: THP-1
Experimental: Methodology: The study included replicated tests of IL-1β levels with and without CPDS, as well as reference testing of untreated cells and cells treated with lactoferrin and clobetasol. A third test was conducted of IL-1 receptor […] (IL-1RA) receptor, to assist in distinguishing whether reductions in IL-1β levels were associated with secretion or receptor blocking (via the receptor antagonist). Cell viability studies were conducted for both sets of tests. Each of the tests used an ELISA model with the following protocols. 1. THP-1 cells were grown in (RPMI+10% FBS, 10 mM HEPES, 1 mM Sodium Pyruvate, and 0.05 mM 2-Mecaptpethanol) to P8. 2. Cells were plated at 30,000 cells per well in 120 ul with Media+20 ng/ml PMA+2× Genta. 3. […] Cells were treated according to plan below. 5. Cells were incubated for three more days at 37° C. and 5% CO2. 6. Cell supernatant were collected and ELISA was measured for IL-1RA, IL-1α, and IL-1β. 7. Plate was read at 490 nm until O.D reached 1.5. Day 1—1. THP-1+20 ng/ml PMA 30,000 cells per well 120 uL Day 3—1. Add Compound at 4× in 60 uL. Incubate for 2 hours. CPDS—800 uM (200 uM Final), lactoferrin—800 ug/mL (200 ug/ml Final) clobetasol −40 ng/mL (10 ng/mL Final). 2. […] Add 30 uL LPS at 8×—20 ng/ml (2.5 ng/ml final) in 30 uL (Wells 2-10) 4. Incubate for 3 days. Day 6—1. Collect 80 ul of sample 2 times and freeze for ELISA. 2. Develop with 15 uL of Substrate and read at 490 nm until plate reaches 1.5 OD. THP-1 is a spontaneously immortalized monocyte-like cell line, derived from the peripheral blood of a childhood case of acute monocytic leukemia, which has been extensively used to study monocyte/macrophage functions, mechanisms, signaling pathways, and nutrient and drug transport. This cell line has become a common model to estimate modulation of monocyte and macrophage activities.

[2] = test system: IL-1RA; test: human IL-1RA (receptor antagonist) ELISA, THP-1 supernatant; format: cell-based
Experimental: Methodology: The study included replicated tests of IL-1β levels with and without CPDS, as well as reference testing of untreated cells and cells treated with lactoferrin and clobetasol. A third test was conducted of IL-1 receptor […] (IL-1RA) receptor, to assist in distinguishing whether reductions in IL-1β levels were associated with secretion or receptor blocking (via the receptor antagonist). Cell viability studies were conducted for both sets of tests. 1. THP-1 cells were grown in (RPMI+10% FBS, 10 mM HEPES, 1 mM Sodium Pyruvate, and 0.05 mM 2-Mecaptpethanol) to P8. 2. Cells were plated at 30,000 cells per well in 120 ul with Media+20 ng/ml PMA+2× Genta. 3. […] Cells were treated according to plan below. 5. Cells were incubated for three more days at 37° C. and 5% CO2. 6. Cell supernatant were collected and ELISA was measured for IL-1RA, IL-1α, and IL-1β. 7. Plate was read at 490 nm until O.D reached 1.5. In order to determine whether the reduction in IL-1β was from blocking of secretion or from blocking of the receptor, a human IL-1RA (receptor antagonist) ELISA test was performed.

[3] = test system: IL-10; test: LPS-stimulated macrophages, IL-10 ELISA; format: cell-based, murine; conditions: CPDS (e.g., 50 μM) 90 minutes before LPS (10 ug/ml), 24 to 48 hours
Experimental: An in vitro model of inflammation mediated by macrophages is used. Primary macrophages isolated from humans or non-human species (e.g., mice or rats) were used. A murine macrophage cell line RAW264.7 (CCRL-2278) was also used. Macrophages are treated with CPDS. […] Then the effect of CPDS on inflammation is assessed by comparing the levels of […] mediators IL-6 and IL-10. IL-10 and IL-6 were determined by ELISA. The level of IL-6 and IL-10 were compared to the level prior to CPDS treatment.

[4] = cited from earlier work
[5] = CPDS 1.6 uM + 10 ng/ml IFNy + 2.5 ng/ml LPS
[6] = CPDS 3.1 uM + 10 ng/ml IFNy + 2.5 ng/ml LPS
[7] = CPDS 6.3 uM + 10 ng/ml IFNy + 2.5 ng/ml LPS
[8] = CPDS 12.5 uM + 10 ng/ml IFNy + 2.5 ng/ml LPS
[9] = CPDS 25.0 uM + 10 ng/ml IFNy + 2.5 ng/ml LPS
[10] = CPDS 50.0 uM + 10 ng/ml IFNy + 2.5 ng/ml LPS
[11] = CPDS 100.0 uM + 10 ng/ml IFNy + 2.5 ng/ml LPS
[12] = CPDS 200.0 uM + 10 ng/ml IFNy + 2.5 ng/ml LPS
[13] = IV doses up to 300 mg/kg (1 mM)

With `O=C(O)c1ccc(SSc2ccc(C(=O)O)cn2)nc1` [CPDS, 6,6′-dithiodinicotinic acid] the “neutralization of production of IL-1β in human cells” value ([1]; 25 μM) was “near neutralization”, the “Ave IL-Ib 1/10 Avg” value [1, 5] was 0.19 ng/mL and the “Ave IL-Ib 1/10 Rep 1” value [1, 5] was 0.19 ng/mL. For the same molecule, the “Ave IL-Ib 1/10 Rep 2” value [1, 5] was 0.18 ng/mL, the “Ave IL-Ib 2/28 Rep 1” value [1, 5] was 0.32 ng/mL and the “Ave IL-Ib 2/28 Rep 2” value [1, 5] was 0.29 ng/mL. For the same molecule, the “Ave IL-Ib 2/28 Rep 3” value [1, 5] was 0.30 ng/mL, the “IL-1β Relative %” value [1, 5] was 114.2% and the “Ave IL-Ib 1/10 Avg” value [1, 6] was 0.19 ng/mL. For the same molecule, the “Ave IL-Ib 1/10 Rep 1” value [1, 6] was 0.21 ng/mL, the “Ave IL-Ib 1/10 Rep 2” value [1, 6] was 0.17 ng/mL and the “Ave IL-Ib 2/28 Rep 1” value [1, 6] was 0.30 ng/mL. For the same molecule, the “Ave IL-Ib 2/28 Rep 2” value [1, 6] was 0.26 ng/mL, the “Ave IL-Ib 2/28 Rep 3” value [1, 6] was 0.28 ng/mL and the “IL-1β Relative %” value [1, 6] was 105.2%. For the same molecule, the “Ave IL-Ib 1/10 Avg” value [1, 7] was 0.15 ng/mL, the “Ave IL-Ib 1/10 Rep 1” value [1, 7] was 0.15 ng/mL and the “Ave IL-Ib 1/10 Rep 2” value [1, 7] was 0.14 ng/mL. For the same molecule, the “Ave IL-Ib 2/28 Rep 1” value [1, 7] was 0.23 ng/mL, the “Ave IL-Ib 2/28 Rep 2” value [1, 7] was 0.24 ng/mL and the “Ave IL-Ib 2/28 Rep 3” value [1, 7] was 0.24 ng/mL. For the same molecule, the “IL-1β Relative %” value [1, 7] was 88.7%, the “Ave IL-Ib 1/10 Avg” value [1, 8] was 0.08 ng/mL and the “Ave IL-Ib 1/10 Rep 1” value [1, 8] was 0.09 ng/mL. For the same molecule, the “Ave IL-Ib 1/10 Rep 2” value [1, 8] was 0.06 ng/mL, the “Ave IL-Ib 2/28 Rep 1” value [1, 8] was 0.13 ng/mL and the “Ave IL-Ib 2/28 Rep 2” value [1, 8] was 0.11 ng/mL. For the same molecule, the “Ave IL-Ib 2/28 Rep 3” value [1, 8] was 0.12 ng/mL, the “IL-1β Relative %” value [1, 8] was 45.8% and the “Ave IL-Ib 1/10 Avg” value [1, 9] was 0.04 ng/mL. The “Ave IL-Ib 1/10 Rep 1” value [1, 9] was 0.05 ng/mL, the “Ave IL-Ib 1/10 Rep 2” value [1, 9] was 0.03 ng/mL and the “Ave IL-Ib 2/28 Rep 1” value [1, 9] was 0.04 ng/mL. The “Ave IL-Ib 2/28 Rep 2” value [1, 9] was 0.03 ng/mL, the “Ave IL-Ib 2/28 Rep 3” value [1, 9] was 0.04 ng/mL and the “IL-1β Relative %” value [1, 9] was 13.7%. For the same molecule, the “Ave IL-Ib 1/10 Avg” value [1, 10] was 0.01 ng/mL, the “Ave IL-Ib 1/10 Rep 1” value [1, 10] was 0.01 ng/mL and the “Ave IL-Ib 1/10 Rep 2” value [1, 10] was 0.01 ng/mL. The “Ave IL-Ib 2/28 Rep 1” value [1, 10] was 0.02 ng/mL, the “Ave IL-Ib 2/28 Rep 2” value [1, 10] was 0.01 ng/mL and the “Ave IL-Ib 2/28 Rep 3” value [1, 10] was 0.02 ng/mL. For the same molecule, the “IL-1β Relative %” value [1, 10] was 6.1%, the “Ave IL-Ib 1/10 Avg” value [1, 11] was 0.01 ng/mL and the “Ave IL-Ib 1/10 Rep 1” value [1, 11] was 0.01 ng/mL. For the same molecule, the “Ave IL-Ib 1/10 Rep 2” value [1, 11] was 0.01 ng/mL, the “Ave IL-Ib 2/28 Rep 1” value [1, 11] was 0.03 ng/mL and the “Ave IL-Ib 2/28 Rep 2” value [1, 11] was 0.01 ng/mL. For the same molecule, the “Ave IL-Ib 2/28 Rep 3” value [1, 11] was 0.02 ng/mL, the “IL-1β Relative %” value [1, 11] was 8.2% and the “Ave IL-Ib 1/10 Avg” value [1, 12] was 0.01 ng/mL. The “Ave IL-Ib 1/10 Rep 1” value [1, 12] was 0.01 ng/mL, the “Ave IL-Ib 1/10 Rep 2” value [1, 12] was 0.01 ng/mL and the “Ave IL-Ib 2/28 Rep 1” value [1, 12] was 0.02 ng/mL. For the same molecule, the “Ave IL-Ib 2/28 Rep 2” value [1, 12] was 0.02 ng/mL, the “Ave IL-Ib 2/28 Rep 3” value [1, 12] was 0.02 ng/mL and the “IL-1β Relative %” value [1, 12] was 6.8%. The “ability of IFN-γ to stimulate the production of IL-1β” value ([1]; FIG. 1, clinically obtainable levels of CPDS) was “markedly reduce”, the “levels of IL-1β” value ([1]; FIG. 2, in the presence of LPS) was “substantially reduce” and the “secretion of IL-1β blocked” value ([1]; concentration as low as 50 uM CPDS) was 94%. For the same molecule, the “neutralization of IL-1β” value ([1]; concentrations of 12.5 to 200 μM) was “complete neutralization”, the “reduction of measured IL-1β levels” value ([1]; concentrations of 12.5 to 200 μM, both tests) was 92-99% and the “neutralization of production of IL-1β in human cells” value ([1]; concentrations ranging from 50-200 μM) was “completely neutralize”. The “reduction of IL-1RA” value ([2]; 100 μM) was 60%, the “reduction of IL-1RA” value ([2]; 200 μM) was 76% and the “effect on IL-1RA production” value ([2]; all concentrations lower than 100 μM) was “did not affect; also recorded: no effect”. For the same molecule, the “expression level of IL-10” value [3] was “dramatically reduced”, the “kidney or liver weight” value [4, 13] was “slight increase” and the lethality [4, 13] was “not fatal”. For the same molecule, the tolerability ([4]; doses up to 300 mg/kg (1 mM) intravenous) was “tolerated”.
